Test results taken from PMC5218480 (PLoS ONE, 2017).

System: MV-4-11 cells
Test: Gene expression microarray analysis (Affymetrix PrimeView) and GSEA
Type: cell-based, human
Parameters: RFU PODN (11730768_x_at) / Fold change /veh PODN (11730768_x_at) / RFU LINC00158 (11744669_a_at) / Fold change /veh LINC00158 (11744669_a_at) / RFU DUSP10 (11751237_a_at) / Fold change /veh DUSP10 (11751237_a_at) / RFU ID3 (11757404_x_at) / Fold change /veh ID3 (11757404_x_at) / RFU PLEKHG5 (11737974_s_at) / Fold change /veh PLEKHG5 (11737974_s_at) / RFU LRRC4B (11730491_at) / Fold change /veh LRRC4B (11730491_at) / RFU GIMAP4 (11747438_a_at) / Fold change /veh GIMAP4 (11747438_a_at) / RFU KRT8 (11758183_x_at) / Fold change /veh KRT8 (11758183_x_at) / RFU CNN1 (11734310_a_at) / Fold change /veh CNN1 (11734310_a_at) / RFU VPS37D (11726825_at) / Fold change /veh VPS37D (11726825_at) / RFU C10orf10 (11716522_x_at) / Fold change /veh C10orf10 (11716522_x_at) / RFU KIR2DL2 /// KIR2DL4 /// KIR2DL5A /// KIR2DL5B /// KIR2DS1 /// KIR2DS2 /// KIR2DS3 /// KIR2DS4 /// KIR3DL3 /// KIR3DL3 /// KIR3DS1 (11738374_at) / Fold change /veh KIR2DL2 /// KIR2DL4 /// KIR2DL5A /// KIR2DL5B /// KIR2DS1 /// KIR2DS2 /// KIR2DS3 /// KIR2DS4 /// KIR3DL3 /// KIR3DL3 /// KIR3DS1 (11738374_at) / RFU C1QL1 (11718748_at) / Fold change /veh C1QL1 (11718748_at) / RFU TMPRSS4 (11747572_a_at) / Fold change /veh TMPRSS4 (11747572_a_at) / RFU HAMP (11756126_x_at) / Fold change /veh HAMP (11756126_x_at) / RFU RNFT2 (11725882_a_at) / Fold change /veh RNFT2 (11725882_a_at) / RFU NR4A2 (11747474_a_at) / Fold change /veh NR4A2 (11747474_a_at) / RFU ABCC12 (11746883_a_at) / Fold change /veh ABCC12 (11746883_a_at) / RFU TMEM136 (11760407_x_at) / Fold change /veh TMEM136 (11760407_x_at) / RFU CLDN22 /// WWC2 (11732394_at) / Fold change /veh CLDN22 /// WWC2 (11732394_at) / RFU HLA-DPB1 (11760878_x_at) / Fold change /veh HLA-DPB1 (11760878_x_at) / RFU SPINT1 (11716480_a_at) / Fold change /veh SPINT1 (11716480_a_at) / RFU GAP43 (11754022_s_at) / Fold change /veh GAP43 (11754022_s_at) / RFU A4GNT (11735810_at) / Fold change /veh A4GNT (11735810_at) / RFU PRB3 (11715151_x_at) / Fold change /veh PRB3 (11715151_x_at) / RFU TUBB4B (11761932_at) / Fold change /veh TUBB4B (11761932_at) / RFU CAPN14 (11732068_a_at) / Fold change /veh CAPN14 (11732068_a_at) / RFU TMCC2 (11721928_a_at) / Fold change /veh TMCC2 (11721928_a_at) / RFU IRGQ (11745062_a_at) / Fold change /veh IRGQ (11745062_a_at) / RFU FAM174B (11720279_a_at) / Fold change /veh FAM174B (11720279_a_at) / RFU TMPRSS4 (11748680_a_at) / Fold change /veh TMPRSS4 (11748680_a_at) / RFU FAM212B (11763350_a_at) / Fold change /veh FAM212B (11763350_a_at) / RFU PLEKHG5 (11743358_a_at) / Fold change /veh PLEKHG5 (11743358_a_at) / RFU ZSCAN30 (11745921_a_at) / Fold change /veh ZSCAN30 (11745921_a_at) / RFU CMKLR1 (11741424_a_at) / Fold change /veh CMKLR1 (11741424_a_at) / RFU LOC101060620 /// MAPK8IP1 (11723275_at) / Fold change /veh LOC101060620 /// MAPK8IP1 (11723275_at) / RFU SPTSSB (11747773_x_at) / Fold change /veh SPTSSB (11747773_x_at) / RFU PRSS12 (11739890_at) / Fold change /veh PRSS12 (11739890_at) / RFU BIN1 (11741810_x_at) / Fold change /veh BIN1 (11741810_x_at) / RFU WNT11 (11732464_a_at) / Fold change /veh WNT11 (11732464_a_at) / RFU C10orf10 (11716521_a_at) / Fold change /veh C10orf10 (11716521_a_at) / RFU C5orf56 (11738089_at) / Fold change /veh C5orf56 (11738089_at) / RFU CYB561 (11721691_x_at) / Fold change /veh CYB561 (11721691_x_at) / RFU ANKRD19P (11752326_a_at) / Fold change /veh ANKRD19P (11752326_a_at) / RFU OR2T12 /// OR2T33 /// OR2T8 (11738714_s_at) / Fold change /veh OR2T12 /// OR2T33 /// OR2T8 (11738714_s_at) / RFU VCAN (11748164_a_at) / Fold change /veh VCAN (11748164_a_at) / RFU JSRP1 (11732532_at) / Fold change /veh JSRP1 (11732532_at) / RFU KRTAP10-11 (11738290_x_at) / Fold change /veh KRTAP10-11 (11738290_x_at) / RFU MYO3A (11730013_a_at) / Fold change /veh MYO3A (11730013_a_at) / RFU EBF3 (11725865_a_at) / Fold change /veh EBF3 (11725865_a_at) / RFU CAMK2N1 (11719241_x_at) / Fold change /veh CAMK2N1 (11719241_x_at) / RFU C5orf56 (11738088_a_at) / Fold change /veh C5orf56 (11738088_a_at) / RFU OLFML3 (11715873_a_at) / Fold change /veh OLFML3 (11715873_a_at) / RFU LOC100653217 /// NTM (11731650_a_at) / Fold change /veh LOC100653217 /// NTM (11731650_a_at) / RFU MAPK11 (11762145_a_at) / Fold change /veh MAPK11 (11762145_a_at) / RFU FIZ1 (11724087_x_at) / Fold change /veh FIZ1 (11724087_x_at) / RFU OASL (11726364_x_at) / Fold change /veh OASL (11726364_x_at) / RFU SOX15 (11748057_x_at) / Fold change /veh SOX15 (11748057_x_at) / RFU CD79A (11719716_a_at) / Fold change /veh CD79A (11719716_a_at) / RFU HIST1H1D (11736915_at) / Fold change /veh HIST1H1D (11736915_at) / RFU CASKIN2 (11723855_a_at) / Fold change /veh CASKIN2 (11723855_a_at) / RFU LOC730098 (11760151_x_at) / Fold change /veh LOC730098 (11760151_x_at) / RFU OR4N2 (11742367_at) / Fold change /veh OR4N2 (11742367_at) / RFU PRRT2 (11749266_a_at) / Fold change /veh PRRT2 (11749266_a_at) / RFU SNX32 (11753110_a_at) / Fold change /veh SNX32 (11753110_a_at) / RFU CDHR5 (11726645_a_at) / Fold change /veh CDHR5 (11726645_a_at) / RFU RCAN1 (11760418_a_at) / Fold change /veh RCAN1 (11760418_a_at) / RFU FAM167A (11723789_a_at) / Fold change /veh FAM167A (11723789_a_at) / RFU FAM26E (11764081_at) / Fold change /veh FAM26E (11764081_at) / RFU ISYNA1 (11749810_s_at) / Fold change /veh ISYNA1 (11749810_s_at) / RFU ACY1 (11761880_at) / Fold change /veh ACY1 (11761880_at) / RFU 11764098_at / Fold change /veh 11764098_at / RFU SAMD14 (11745864_x_at) / Fold change /veh SAMD14 (11745864_x_at) / RFU NPB (11741838_a_at) / Fold change /veh NPB (11741838_a_at) / RFU TMPRSS6 (11731388_a_at) / Fold change /veh TMPRSS6 (11731388_a_at) / RFU KRTAP10-2 (11738614_at) / Fold change /veh KRTAP10-2 (11738614_at) / RFU ARHGAP8 /// PRR5-ARHGAP8 (11727945_x_at) / Fold change /veh ARHGAP8 /// PRR5-ARHGAP8 (11727945_x_at) / RFU KRTAP5-7 /// NADSYN1 (11734609_at) / Fold change /veh KRTAP5-7 /// NADSYN1 (11734609_at) / RFU RASL12 (11751679_a_at) / Fold change /veh RASL12 (11751679_a_at) / RFU CDKN2B (11736163_a_at) / Fold change /veh CDKN2B (11736163_a_at) / RFU PRF1 (11729649_at) / Fold change /veh PRF1 (11729649_at) / RFU, ZNF638 /// ZNF638-IT1 / Fold change vs veh, ZNF638 /// ZNF638-IT1 / RFU, PANK3 / Fold change vs veh, PANK3 / RFU, SH3YL1 / Fold change vs veh, SH3YL1 / RFU, ZEB2 / Fold change vs veh, ZEB2 / RFU, NRIP1 / Fold change vs veh, NRIP1 / RFU, PTTG1IP / Fold change vs veh, PTTG1IP / RFU, CAPN2 / Fold change vs veh, CAPN2 / RFU, MED14 / Fold change vs veh, MED14 / RFU, SNORA58 / Fold change vs veh, SNORA58 / RFU, C1orf63 / Fold change vs veh, C1orf63 / RFU, LRRFIP1 / Fold change vs veh, LRRFIP1 / RFU, NDUFAF7 / Fold change vs veh, NDUFAF7 / RFU, SLC12A2 / Fold change vs veh, SLC12A2 / RFU, IBTK / Fold change vs veh, IBTK / RFU, ESF1 / Fold change vs veh, ESF1 / Fold change vs veh, TMEM50B / RFU, TAOK1 / Fold change vs veh, TAOK1 / RFU, ACBD3 / Fold change vs veh, ACBD3 / RFU, TMA16 / Fold change vs veh, TMA16 / RFU, RWDD3 / Fold change vs veh, RWDD3 / RFU, BCAT1 / Fold change vs veh, BCAT1 / RFU, EDEM3 / Fold change vs veh, EDEM3 / RFU, TMEM33 / Fold change vs veh, TMEM33 / RFU, WDR75 / Fold change vs veh, WDR75 / RFU, AHCTF1 / Fold change vs veh, AHCTF1 / RFU, TFRC / Fold change vs veh, TFRC / RFU, ZDHHC17 / Fold change vs veh, ZDHHC17 / RFU, NOM1 / Fold change vs veh, NOM1 / RFU, ARL8B / Fold change vs veh, ARL8B / RFU, ZBTB11 / Fold change vs veh, ZBTB11 / RFU, TAMM41 / Fold change vs veh, TAMM41 / RFU, KIAA1704 /// LOC100996395 / Fold change vs veh, KIAA1704 /// LOC100996395 / RFU, ING1 / Fold change vs veh, ING1 / RFU, TRMT61B / Fold change vs veh, TRMT61B / RFU, FUBP3 / Fold change vs veh, FUBP3 / RFU, TP53 / Fold change vs veh, TP53 / RFU, TNKS2 / Fold change vs veh, TNKS2 / RFU, ZFP14 / Fold change vs veh, ZFP14 / RFU, ACTR2 / Fold change vs veh, ACTR2 / RFU, PPP3R1 / Fold change vs veh, PPP3R1 / RFU, PIK3R1 / Fold change vs veh, PIK3R1 / RFU, HNRNPA1 / Fold change vs veh, HNRNPA1 / RFU, RNF170 / Fold change vs veh, RNF170 / RFU, ZNF28 / Fold change vs veh, ZNF28 / RFU, RNGTT / Fold change vs veh, RNGTT / RFU, OGT / Fold change vs veh, OGT / RFU, BRD1 / Fold change vs veh, BRD1 / RFU, MARS / Fold change vs veh, MARS / RFU, ZNF655 / Fold change vs veh, ZNF655 / RFU, FAHD1 / Fold change vs veh, FAHD1 / RFU, BDP1 / Fold change vs veh, BDP1 / RFU, LRRCC1 / Fold change vs veh, LRRCC1 / RFU, ARID1A / Fold change vs veh, ARID1A / RFU, ZNF146 / Fold change vs veh, ZNF146 / RFU, ZNF330 / Fold change vs veh, ZNF330 / RFU, GPN3 / Fold change vs veh, GPN3 / RFU, C9orf123 / Fold change vs veh, C9orf123 / RFU, N4BP2L2 / Fold change vs veh, N4BP2L2 / RFU, ARFIP1 / Fold change vs veh, ARFIP1 / RFU, FAM179B / Fold change vs veh, FAM179B / RFU, BCL10 / Fold change vs veh, BCL10 / RFU, UHRF1BP1L / Fold change vs veh, UHRF1BP1L / RFU, BET1 / Fold change vs veh, BET1 / RFU, CNOT2 / Fold change vs veh, CNOT2 / RFU, ZNF268 / Fold change vs veh, ZNF268 / Fold change vs veh, ZNF507 / RFU, DGCR2 / Fold change vs veh, DGCR2 / RFU, WDSUB1 / Fold change vs veh, WDSUB1 / Fold change vs veh, HSP90B1 /// MIR3652 / RFU, ADSS / Fold change vs veh, ADSS / RFU, GK / Fold change vs veh, GK / RFU, ZNF148 / Fold change vs veh, ZNF148 / RFU, TAF9 / Fold change vs veh, TAF9 / RFU, SLC1A5 / Fold change vs veh, SLC1A5 / RFU, SLMO2 / Fold change vs veh, SLMO2 / RFU, ABCC4 / Fold change vs veh, ABCC4 / RFU, LOC101060439 /// RAP1B / Fold change vs veh, LOC101060439 /// RAP1B / RFU, RFX7 / Fold change vs veh, RFX7 / RFU, GTPBP10 / Fold change vs veh, GTPBP10 / RFU, CNEP1R1 / Fold change vs veh, CNEP1R1 / RFU, BIVM-ERCC5 /// ERCC5 / Fold change vs veh, BIVM-ERCC5 /// ERCC5 / RFU, ILF3 / Fold change vs veh, ILF3 / RFU 11762660_at / Fold change /veh 11762660_at / RFU VCAN (11757783_s_at) / Fold change /veh VCAN (11757783_s_at) / RFU DDX43 (11728927_at) / Fold change /veh DDX43 (11728927_at) / RFU KRT8 (11758188_x_at) / Fold change /veh KRT8 (11758188_x_at) / RFU NKD1 (11759106_at) / Fold change /veh NKD1 (11759106_at) / RFU SRD5A1 (11742802_a_at) / Fold change /veh SRD5A1 (11742802_a_at) / RFU TPSAB1 /// TPSB2 (11721975_s_at) / Fold change /veh TPSAB1 /// TPSB2 (11721975_s_at) / RFU GSTM3 (11746129_a_at) / Fold change /veh GSTM3 (11746129_a_at) / RFU IL23R (11737362_x_at) / Fold change /veh IL23R (11737362_x_at) / RFU TMEM51 (11727254_a_at) / Fold change /veh TMEM51 (11727254_a_at) / RFU PIWIL2 (11732686_x_at) / Fold change /veh PIWIL2 (11732686_x_at) / RFU ORM1 (11744905_x_at) / Fold change /veh ORM1 (11744905_x_at) / RFU CCDC152 (11743942_at) / Fold change /veh CCDC152 (11743942_at) / RFU ECM1 (11717891_a_at) / Fold change /veh ECM1 (11717891_a_at) / RFU IL23R (11748794_a_at) / Fold change /veh IL23R (11748794_a_at) / RFU TNFAIP8L3 (11732012_x_at) / Fold change /veh TNFAIP8L3 (11732012_x_at) / RFU MBOAT4 (11741988_at) / Fold change /veh MBOAT4 (11741988_at) / RFU 11764193_at / Fold change /veh 11764193_at / RFU TMEM53 (11763286_at) / Fold change /veh TMEM53 (11763286_at) / RFU MAGEB2 (11727129_at) / Fold change /veh MAGEB2 (11727129_at) / RFU TMEM200A (11744735_a_at) / Fold change /veh TMEM200A (11744735_a_at) / RFU CCDC152 (11751479_a_at) / Fold change /veh CCDC152 (11751479_a_at) / RFU FAM211A (11726209_a_at) / Fold change /veh FAM211A (11726209_a_at) / RFU RGS16 (11746705_a_at) / Fold change /veh RGS16 (11746705_a_at) / RFU VCAN (11755009_s_at) / Fold change /veh VCAN (11755009_s_at) / RFU RHOB (11743442_s_at) / Fold change /veh RHOB (11743442_s_at) / RFU RGS16 (11720943_a_at) / Fold change /veh RGS16 (11720943_a_at) / RFU RGS16 (11720944_at) / Fold change /veh RGS16 (11720944_at) / RFU, VPS4B / Fold change vs veh, VPS4B / RFU, CREB1 / Fold change vs veh, CREB1 / RFU, DNAJC13 / Fold change vs veh, DNAJC13 / RFU, GNAQ / Fold change vs veh, GNAQ / RFU, CDK5R1 / Fold change vs veh, CDK5R1 / RFU, ZRANB3 / Fold change vs veh, ZRANB3 / RFU, CUL4A / Fold change vs veh, CUL4A / RFU, CCNY / Fold change vs veh, CCNY / RFU, UFL1 / Fold change vs veh, UFL1 / RFU, COG3 / Fold change vs veh, COG3 / RFU, DIAPH2 / Fold change vs veh, DIAPH2 / RFU, SKA2 / Fold change vs veh, SKA2 / RFU, AFF3 / Fold change vs veh, AFF3 / RFU, LMF1 / Fold change vs veh, LMF1 / RFU, IPO11 / Fold change vs veh, IPO11 / RFU, DFFB / Fold change vs veh, DFFB / RFU, FOXP1 / Fold change vs veh, FOXP1 / RFU, CARD8 / Fold change vs veh, CARD8 / RFU, STRN3 / Fold change vs veh, STRN3 / RFU, ADK / Fold change vs veh, ADK / RFU, RASSF2 / Fold change vs veh, RASSF2 / RFU, WIPF1 / Fold change vs veh, WIPF1 / RFU, LARP1B / Fold change vs veh, LARP1B / RFU, RASA1 / Fold change vs veh, RASA1 / RFU, RB1 / Fold change vs veh, RB1 / RFU, PPFIA1 / Fold change vs veh, PPFIA1 / RFU, MAT2A / Fold change vs veh, MAT2A / RFU, CCT5 / Fold change vs veh, CCT5 / RFU, WDR92 / Fold change vs veh, WDR92 / RFU, CUX1 / Fold change vs veh, CUX1 / RFU, TTC7A / Fold change vs veh, TTC7A / RFU, TMEM135 / Fold change vs veh, TMEM135 / RFU, DEPTOR / Fold change vs veh, DEPTOR / RFU, CPM / Fold change vs veh, CPM / RFU, DNAJB6 / Fold change vs veh, DNAJB6 / RFU, CACNA2D3 / Fold change vs veh, CACNA2D3 / RFU, DTX4 / Fold change vs veh, DTX4 / RFU, TFCP2 / Fold change vs veh, TFCP2 / RFU, GMCL1 /// GMCL1P1 / Fold change vs veh, GMCL1 /// GMCL1P1 / RFU, AEBP2 / Fold change vs veh, AEBP2 / RFU, SNHG1 /// SNORD22 /// SNORD25 /// SNORD26 /// SNORD27 /// SNORD28 /// SNORD29 /// SNORD31 / Fold change vs veh, SNHG1 /// SNORD22 /// SNORD25 /// SNORD26 /// SNORD27 /// SNORD28 /// SNORD29 /// SNORD31 / Fold change (Aza/veh), C12orf56 (ProbeSet 11735607_a_at) / Fold change (ACY-1035/veh), C12orf56 (ProbeSet 11735607_a_at) / Fold change (Aza/veh), FGFR1OP (ProbeSet 11751329_s_at) / Fold change (ACY-1035/veh), FGFR1OP (ProbeSet 11751329_s_at) / Fold change (Aza/veh), VPS36 (ProbeSet 11739960_a_at) / Fold change (ACY-1035/veh), VPS36 (ProbeSet 11739960_a_at) / RFU SYPL1 (11715823_x_at) / Fold change /veh SYPL1 (11715823_x_at) / RFU IGFBP7 (11715501_s_at) / Fold change /veh IGFBP7 (11715501_s_at) / RFU REEP3 (11722064_at) / Fold change /veh REEP3 (11722064_at) / RFU IGLL1 (11728026_x_at) / Fold change /veh IGLL1 (11728026_x_at): dose or concentration left out as unconfirmed
Conditions: ProbeSet 11739263_x_at; LIST D

## Nc1ccc(-c2cccs2)cc1NC(=O)c1ccc2c(c1)cc(C1CC1)n2CCN1CCOCC1 [ACY-1035]
  RFU, VPS4B: 70.19 RFU
